The experiment relates to P388 leukemia ip, CD2F1 mice, survival T/C. The experiment is described as follows: NCI In Vivo Anticancer Drug Screen. Data for tumor model P388 Leukemia (intraperitoneal) in CD2F1 (CDF1) mice. The conditions noted are these: endpoint: median survival time, higher = longer survival. In short, it runs like this:
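Mice carrying the transplanted tumor received test compound or vehicle. Survival was recorded in each group, and the value is the treated-group measurement divided by that of the vehicle-treated control group.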

Where [1] appears, read: dose: 50.0 mg/kg/injection, schedule: Q01DX005 (ip), vehicle: saline with Tween-80.
Setting [2] is: dose: 100.0 mg/kg/injection, schedule: Q01DX005 (ip), vehicle: saline with Tween-80.
Where [3] appears, read: dose: 200.0 mg/kg/injection, schedule: Q01DX005 (ip), vehicle: saline with Tween-80.
The mark [4] stands for this setting: dose: 50.0 mg/kg/injection, schedule: Q01DX009 (ip), vehicle: saline with Tween-80.
The mark [5] stands for this setting: dose: 25.0 mg/kg/injection, schedule: Q04DX003 (ip), vehicle: Klucel (hydroxypropylcellulose) (HPC).
Setting [6] is: dose: 50.0 mg/kg/injection, schedule: Q04DX003 (ip), vehicle: Klucel (hydroxypropylcellulose) (HPC).
Where [7] appears, read: dose: 400.0 mg/kg/injection, schedule: Q04DX003 (ip), vehicle: Klucel (hydroxypropylcellulose) (HPC).
[8] abbreviates: dose: 100.0 mg/kg/injection, schedule: Q01DX001 (ip), vehicle: Klucel (hydroxypropylcellulose) (HPC).
The mark [9] stands for this setting: dose: 200.0 mg/kg/injection, schedule: Q01DX001 (ip), vehicle: Klucel (hydroxypropylcellulose) (HPC).
Setting [10] is: dose: 400.0 mg/kg/injection, schedule: Q01DX001 (ip), vehicle: Klucel (hydroxypropylcellulose) (HPC).
Where [11] appears, read: dose: 100.0 mg/kg/injection, schedule: Q01DX009 (ip), vehicle: saline with Tween-80.
Setting [12] is: dose: 50.0 mg/kg/injection, schedule: Q01DX009 (ip), vehicle: saline.
[13] abbreviates: dose: 100.0 mg/kg/injection, schedule: Q01DX009 (ip), vehicle: saline.
[14] abbreviates: dose: 200.0 mg/kg/injection, schedule: Q01DX009 (ip), vehicle: saline.

Each structure is given as a SMILES string. Several values for one entry are separate records, joined by “and”; a condition that tells them apart may be missing. Equal entries are not always repeated. Inconclusive results and toxic doses are left out.

For the compound `CCCCS(=O)CC(CO)NC(=O)/C=C/c1c(C)[nH]c(=O)[nH]c1=O` (stereo not drawn), the T/C runs as follows: (dose: 0.08 mg/kg/injection, schedule: Q01DX009 (ip), vehicle: Klucel (hydroxypropylcellulose) (HPC)) 89 % of control; (dose: 0.15 mg/kg/injection, schedule: Q01DX009 (ip), vehicle: Klucel (hydroxypropylcellulose) (HPC)) 86 % of control; (dose: 0.3 mg/kg/injection, schedule: Q01DX009 (ip), vehicle: Klucel (hydroxypropylcellulose) (HPC)) 103 % of control; (dose: 0.6 mg/kg/injection, schedule: Q01DX009 (ip), vehicle: Klucel (hydroxypropylcellulose) (HPC)) 112 % of control; (dose: 0.6 mg/kg/injection, schedule: Q01DX009 (ip), vehicle: water) 122 % of control; (dose: 4.8 mg/kg/injection, schedule: Q01DX009 (ip), vehicle: water) 153 % of control. Also, the T/C (dose: 5.0 mg/kg/injection, schedule: Q01DX009 (ip), vehicle: water) was 161 % of control.

For `C=CC(=NC(C)C)NC(C)C`, the T/C (dose: 1.56 mg/kg/injection, schedule: Q01DX009 (ip), vehicle: saline) is 100 % of control and the T/C (dose: 3.13 mg/kg/injection, schedule: Q01DX009 (ip), vehicle: saline) is 101 % of control.

Take `[N-]=[N+]=CC(=O)C1OC1c1ccc(Br)cc1` (stereo not drawn): the T/C (dose: 25.0 mg/kg/injection, schedule: Q01DX005 (ip), vehicle: saline with Tween-80) is 98 % of control; the T/C under setting [1] is 93 % of control; the T/C under setting [2] is 91 % of control; the T/C under setting [3] is 95 % of control.

On to `COc1cc(C(=O)C2OC2c2ccc(Cl)cc2)c([N+](=O)[O-])cc1OC` (stereo not drawn), for which the T/C (dose: 50.0 mg/kg/injection, schedule: Q01DX005 (ip), vehicle: Klucel (hydroxypropylcellulose) (HPC)) was 93 % of control; the T/C (dose: 100.0 mg/kg/injection, schedule: Q01DX005 (ip), vehicle: Klucel (hydroxypropylcellulose) (HPC)) is 98 % of control; the T/C (dose: 200.0 mg/kg/injection, schedule: Q01DX005 (ip), vehicle: Klucel (hydroxypropylcellulose) (HPC)) was 96 % of control.

With `Nc1ccc(NCC2CCCN3CCCCC23)c2c(=O)c3ccccc3sc12` (stereo not drawn), the T/C (dose: 13.25 mg/kg/injection, schedule: Q01DX005 (ip), vehicle: saline with Tween-80) is 104 % of control; the T/C (dose: 26.5 mg/kg/injection, schedule: Q01DX005 (ip), vehicle: saline with Tween-80) was 101 % of control; the T/C (dose: 53.0 mg/kg/injection, schedule: Q01DX005 (ip), vehicle: saline with Tween-80) was 103 % of control; the T/C (dose: 90.0 mg/kg/injection, schedule: Q01DX005 (ip), vehicle: saline with Tween-80) is 94 % of control; the T/C (dose: 106.0 mg/kg/injection, schedule: Q01DX005 (ip), vehicle: saline with Tween-80) was 100 % of control; the T/C (dose: 180.0 mg/kg/injection, schedule: Q01DX005 (ip), vehicle: saline with Tween-80) was 94 % of control. Where the note is “dose: 360.0 mg/kg/injection, schedule: Q01DX005 (ip), vehicle: saline with Tween-80”, the T/C is 95 % of control.

For the compound `O=C(c1ccccc1)C(C(=O)c1ccccc1)C(c1ccccc1)(c1ccccc1)c1ccccc1`, the T/C runs as follows: (dose: 12.5 mg/kg/injection, schedule: Q04DX003 (ip), vehicle: saline with Tween-80) 97 % of control; (dose: 25.0 mg/kg/injection, schedule: Q04DX003 (ip), vehicle: saline with Tween-80) 99 % of control and 98 % of control; (dose: 50.0 mg/kg/injection, schedule: Q04DX003 (ip), vehicle: saline with Tween-80) 87 % of control; (dose: 100.0 mg/kg/injection, schedule: Q04DX003 (ip), vehicle: saline with Tween-80) 90 % of control and 91 % of control; (dose: 400.0 mg/kg/injection, schedule: Q04DX003 (ip), vehicle: saline with Tween-80) 88 % of control.

As for `CCOC(=O)C(C(=O)c1ccccc1)c1cc(NS(=O)(=O)c2ccccc2)ccc1O` (stereo not drawn), the T/C was 90 % of control (dose: 12.5 mg/kg/injection, schedule: Q01DX009 (ip), vehicle: saline with Tween-80); 100 % of control (dose: 25.0 mg/kg/injection, schedule: Q01DX009 (ip), vehicle: saline with Tween-80); 105 % of control under setting [4]; 100 % of control (dose: 75.0 mg/kg/injection, schedule: Q04DX003 (ip), vehicle: saline with Tween-80); 100 % of control (dose: 150.0 mg/kg/injection, schedule: Q04DX003 (ip), vehicle: saline with Tween-80); 100 % of control (dose: 300.0 mg/kg/injection, schedule: Q04DX003 (ip), vehicle: saline with Tween-80).

For `N#Cc1cccn1OCN1C(=O)c2ccccc2C1=O`, the T/C reads like this: under setting [5], 100 % of control; under setting [6], 103 % of control; (dose: 100.0 mg/kg/injection, schedule: Q04DX003 (ip), vehicle: Klucel (hydroxypropylcellulose) (HPC)) 100 % of control and 92 % of control; under setting [7], 87 % of control.

`O=Cc1c(-c2ccc(Cl)cc2)nc2sccn12`: the T/C under setting [8] is 93 % of control, the T/C under setting [9] was 96 % of control and the T/C under setting [10] was 93 % of control.

Regarding `CCN(CC)Cc1ccc2ccccc2c1O`, the T/C by setting is: under setting [4], 103 % of control; under setting [11], 89 % of control; (dose: 200.0 mg/kg/injection, schedule: Q01DX009 (ip), vehicle: saline with Tween-80) 92 % of control.

On to `Cc1cn2c(n1)sc1ccccc12`, for which the T/C by setting is: under setting [1], 96 % of control; under setting [2], 95 % of control; under setting [3], 95 % of control.

As for `CN1CCC2(CCNCC2)C1=O`, the T/C reads like this: under setting [12], 86 % of control; under setting [13], 100 % of control; under setting [14], 95 % of control.

On to `O=C1Oc2ccccc2OC1c1ccccc1` (stereo not drawn), for which the T/C (dose: 50.0 mg/kg/injection, schedule: Q01DX009 (ip), vehicle: Klucel (hydroxypropylcellulose) (HPC)) was 102 % of control; the T/C (dose: 100.0 mg/kg/injection, schedule: Q01DX009 (ip), vehicle: Klucel (hydroxypropylcellulose) (HPC)) was 106 % of control; the T/C (dose: 200.0 mg/kg/injection, schedule: Q01DX009 (ip), vehicle: Klucel (hydroxypropylcellulose) (HPC)) was 97 % of control.

As to `CC(NNC(=S)N1CCN(c2ccccn2)CC1)c1cc2ccccc2cn1` (stereo not drawn), the T/C was 96 % of control (dose: 12.5 mg/kg/injection, schedule: Q04DX003 (ip), vehicle: Klucel (hydroxypropylcellulose) (HPC)); 88 % of control under setting [5]; 88 % of control under setting [6]; 86 % of control under setting [7].

In the case of `O=c1ccc2cc3ccoc3c(OCCOCCOCCOCCOc3c4occc4cc4ccc(=O)oc34)c2o1`, the T/C is, setting by setting: under setting [1], 92 % of control; under setting [2], 91 % of control; under setting [3], 91 % of control.

On to `CSc1ccc(SC)c2c1C(=O)c1c(SC)ccc(SC)c1C2=O`, for which the T/C was 93 % of control under setting [4] and 96 % of control under setting [11].

Take `COc1ccc([N+](=O)[O-])cc1NC(=O)c1ccc2c(c1)C(=O)OC2=O`: the T/C was 97 % of control (dose: 7.5 mg/kg/injection, schedule: Q01DX005 (ip), vehicle: saline with Tween-80); 87 % of control (dose: 15.0 mg/kg/injection, schedule: Q01DX005 (ip), vehicle: saline with Tween-80); 90 % of control and 94 % of control (dose: 30.0 mg/kg/injection, schedule: Q01DX005 (ip), vehicle: saline with Tween-80); 89 % of control (dose: 60.0 mg/kg/injection, schedule: Q01DX005 (ip), vehicle: saline with Tween-80); 93 % of control (dose: 240.0 mg/kg/injection, schedule: Q01DX005 (ip), vehicle: saline with Tween-80).

In the case of `NC(CS(=O)Cc1ccccc1)C(=O)O` (stereo not drawn), the T/C runs as follows: under setting [1], 95 % of control; under setting [2], 102 % of control.

Regarding `CCOC(=O)C(CC(=O)O)=C(c1ccccc1)c1ccccc1`, the T/C runs as follows: under setting [12], 107 % of control; under setting [13], 100 % of control; under setting [14], 107 % of control.

As to `CC1OC2=C(CC1O)C(=O)c1ccccc1C2=O` (stereo not drawn), the T/C is 102 % of control under setting [8], 102 % of control under setting [9] and 100 % of control under setting [10].

On to `COC(=O)c1nc(=S)[nH]c(C(=O)OC)c1C(=O)c1ccc(OC)cc1`, for which the T/C by setting is: (dose: 60.0 mg/kg/injection, schedule: Q01DX005 (ip), vehicle: saline) 100 % of control; (dose: 120.0 mg/kg/injection, schedule: Q01DX005 (ip), vehicle: saline) 96 % of control; (dose: 240.0 mg/kg/injection, schedule: Q01DX005 (ip), vehicle: saline) 103 % of control.
